Results taken from patent publication US20210198277A1, “AMINE-SUBSTITUTED ARYL OR HETEROARYL COMPOUNDS” (Epizyme, Inc., priority 2016, published 2021).

These compounds were tested against T1, EHMT2 (Homo sapiens, UniProt Q96KQ7) (assay: MDA-MB-231 H3K9me2 in-cell Western assay (EHMT2 ICW)). Settings: H3K9me2 in-cell Western, MDA-MB-231 cells; read-out: EHMT2 ICW (IC50 μM).
T1 construct: host or cells: MDA-MB-231
T1 sequence (Q96KQ7 1-1210): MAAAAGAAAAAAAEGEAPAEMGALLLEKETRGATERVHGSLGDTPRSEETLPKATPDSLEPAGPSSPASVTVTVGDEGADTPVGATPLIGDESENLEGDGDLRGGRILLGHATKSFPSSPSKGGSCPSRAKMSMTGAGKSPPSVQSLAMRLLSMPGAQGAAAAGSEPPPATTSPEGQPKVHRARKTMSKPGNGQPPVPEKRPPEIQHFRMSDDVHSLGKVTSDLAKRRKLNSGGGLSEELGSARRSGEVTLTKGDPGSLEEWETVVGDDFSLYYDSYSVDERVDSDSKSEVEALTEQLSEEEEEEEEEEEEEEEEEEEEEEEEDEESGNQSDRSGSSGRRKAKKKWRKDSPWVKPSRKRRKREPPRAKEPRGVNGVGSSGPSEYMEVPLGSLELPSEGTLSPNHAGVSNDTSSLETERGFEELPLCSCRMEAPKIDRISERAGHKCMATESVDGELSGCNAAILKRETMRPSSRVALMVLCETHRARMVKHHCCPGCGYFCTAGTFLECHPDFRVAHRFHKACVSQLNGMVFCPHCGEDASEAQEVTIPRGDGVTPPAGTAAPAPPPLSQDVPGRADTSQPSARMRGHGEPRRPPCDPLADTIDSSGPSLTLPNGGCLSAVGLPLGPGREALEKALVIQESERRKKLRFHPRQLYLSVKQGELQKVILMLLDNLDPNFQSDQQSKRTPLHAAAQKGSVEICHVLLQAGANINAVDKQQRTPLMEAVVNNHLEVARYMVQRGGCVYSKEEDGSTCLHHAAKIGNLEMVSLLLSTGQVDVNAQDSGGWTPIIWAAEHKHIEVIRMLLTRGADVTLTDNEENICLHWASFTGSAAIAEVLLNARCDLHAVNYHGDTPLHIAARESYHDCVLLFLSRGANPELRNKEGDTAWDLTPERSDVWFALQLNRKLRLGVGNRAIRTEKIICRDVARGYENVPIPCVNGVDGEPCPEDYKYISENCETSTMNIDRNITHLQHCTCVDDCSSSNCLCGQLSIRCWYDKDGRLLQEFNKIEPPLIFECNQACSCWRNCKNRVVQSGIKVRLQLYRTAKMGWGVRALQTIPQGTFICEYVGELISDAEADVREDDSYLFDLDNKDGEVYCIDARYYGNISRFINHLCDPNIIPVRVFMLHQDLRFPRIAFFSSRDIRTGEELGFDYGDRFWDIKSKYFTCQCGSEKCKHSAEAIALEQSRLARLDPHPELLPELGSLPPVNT
Type: cell-based
Method in brief: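 Steps: compound added to plate, MDA-MB-231 cells plated in RPMI with 10% FBS, incubation for 48 h at 37 °C, fixation, overnight anti-H3K9me2 staining at 4 °C, and donkey anti-mouse 800CW with DRAQ5 counterstain. IC50 values come from percent inhibition fitted with a four-parameter model.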
For `CNc1cc(C)nc(Nc2ccc(OC)c(OC[C@@H]3CCN(C4CC4)C3)c2)n1` (single isomer, unassigned) [Compound 481], the IC50 was less than 0.1 µM. Work on `CNc1cc(C)nc(Nc2ccc(OC)c(OC[C@H]3CCN(C4CC4)C3)c2)n1` (single isomer, unassigned) [Compound 482] yielded an IC50 of 1 to 10 µM. `CNc1ccnc(Nc2ccc(OC)c(OCCOC3CC3)c2)n1` [Compound 453, N^2-(3-(2-cyclopropoxyethoxy)-4-methoxyphenyl)-N^4-methylpyrimidine-2,4-diamine] showed an IC50 greater than 10 µM. `CNc1cc(C)nc(Nc2ccc(OC)c(OC3CCN(C)CC3)c2)n1` [Compound 455] gave an IC50 greater than 10 µM. Compound `CNc1cc(C)nc(Nc2ccc(OC)c(OCC3CCN(C4CCCC4)C3)c2)n1` (stereo not shown) [Compound 456, N^2-(3-((1-cyclopentylpyrrolidin-3-yl)methoxy)-4-methoxyphenyl)-N^4,6-dimethylpyrimidine-2,4-diamine] has an IC50 greater than 10 µM. Compound `CNc1cc(C)nc(Nc2ccc(OC)c(OCC3CCN(C4CC4)C3)c2)n1` (stereo not shown) [Compound 457] has an IC50 of less than 0.1 µM. With `CNc1cc(C2CCCC2)nc(Nc2ccc(OC)c(OCCCN3CCCC3)c2)n1` [Compound 458, 6-cyclopentyl-N^2-(4-methoxy-3-(3-(pyrrolidin-1-yl)propoxy)phenyl)-N^4-methylpyrimidine-2,4-diamine] the IC50 was 1 to 10 µM. `CNc1cc(C2CCOCC2)nc(Nc2ccc(OC)c(OCCCN3CCCC3)c2)n1` [Compound 459, N^2-(4-methoxy-3-(3-(pyrrolidin-1-yl)propoxy)phenyl)-N^4-methyl-6-(tetrahydro-2H-pyran-4-yl)pyrimidine-2,4-diamine] gave an IC50 greater than 10 µM. With `COc1cnc(Nc2nc(C)cc3[nH]ncc23)cc1OCCCN1CCCC1` [Compound 460, N-(5-methoxy-4-(3-(pyrrolidin-1-yl)propoxy)pyridine-2-yl)-6-methyl-1H-pyrazolo[4,3-c]pyridine-4-amine] the IC50 was 0.1 to 1 µM. For `CNc1cc(C)nc(Nc2ccc(OC)c(OCC3CCN(CCO)C3)c2)n1` (stereo not shown) [Compound 461, 2-(3-((2-methoxy-5-((4-methyl-6-(methylamino)pyrimidin-2-yl)amino)phenoxy)methyl)pyrrolidin-1-yl)ethan-1-ol], the IC50 was 0.1 to 1 µM. In the case of `COc1ccc(Nc2nc(C)cc(NCC3CCOCC3)n2)cc1OCC1CCN(C2CC2)C1` (stereo not shown) [Compound 462, N^2-(3-((1-cyclopropylpyrrolidin-3-yl)methoxy)-4-methoxyphenyl)-6-methyl-N^4-((tetrahydro-2H-pyran-4-yl)methyl)pyrimidine-2,4-diamine], the IC50 was 0.1 to 1 µM. In the case of `CNc1cc(C)nc(Nc2ccc(OC)c(OCCCN(C)C3CC3)c2)n1` [Compound 463, N^2-(3-(3-(cyclopropyl(methyl)amino)propoxy)-4-methoxyphenyl)-N^4,6-dimethylpyrimidine-2,4-diamine], the IC50 was 0.1 to 1 µM. With `COc1cnc(Nc2cc(NCC3CCOCC3)cc(C)n2)cc1OCCCN1CCCC1` [Compound 464, N^2-(5-methoxy-4-(3-(pyrrolidin-1-yl)propoxy)pyridin-2-yl)-6-methyl-N^4-((tetrahydro-2H-pyran-4-yl)methyl)pyridine-2,4-diamine] the IC50 was 1 to 10 µM. `CNc1cc(C)nc(Nc2ccc(OC)c(OCCCN3CC(O)C3)c2)n1` [Compound 465, 1-(3-(2-methoxy-5-((4-methyl-6-(methylamino)pyrimidin-2-yl)amino)phenoxy)propyl)azetidin-3-ol] showed an IC50 of 0.1 to 1 µM. In the case of `CNc1cc(C)nc(Nc2ccc(OC)c(OC3CCN(C4CC4)CC3)c2)n1` [Compound 466, N^2-(3-((1-cyclopropylpiperidin-4-yl)oxy)-4-methoxyphenyl)-N^4,6-dimethylpyrimidine-2,4-diamine], the IC50 was greater than 10 µM. With `CNc1cc(C)nc(Nc2ccc(OC)c(OC[C@H]3C[C@@H](N(C)C)C3)c2)n1` [Compound 468] the IC50 was 1 to 10 µM. With `CNc1cc(C)nc(Nc2ccc(OC)c(OC[C@H]3C[C@H](N(C)C)C3)c2)n1` [Compound 470] the IC50 was greater than 10 µM. `CCn1nc(Nc2nccc3[nH]ccc23)cc1COCCN1CCCC1` [Compound 471] was tested, and the IC50 was greater than 10 µM. Compound `CNc1cc(Nc2cc(OC[C@@H]3CCN(C)C3)c(OC)cn2)nc(C)n1` [Compound 473] has an IC50 of 1 to 10 µM. In the case of `CNc1cc(C)nc(Nc2cc(OC[C@@H]3CCN(C)C3)c(OC)cn2)c1` [Compound 475], the IC50 was 0.1 to 1 µM. For `CNc1ccnc(Nc2ccc(OC)c(OC[C@@H]3CN(C)C[C@@H]3C)c2)n1` [Compound 477], the IC50 was 1 to 10 µM. For `CNc1ccnc(Nc2ccc(OC)c(OCc3nnc(C4CC4)[nH]3)c2)n1` [Compound 478], the IC50 was greater than 10 µM. `CNc1ccnc(Nc2ccc(OC)c(OCc3ncn(C4CC4)n3)c2)n1` [Compound 480] showed an IC50 greater than 10 µM. `CNc1cc(C(C)C)nc(Nc2ccc(OC)c(OCCCN3CCCC3)c2)n1` [Compound 483] was tested, and the IC50 was 0.1 to 1 µM. Work on `COc1cnc(Nc2nc(C)cc3[nH]c(C)cc23)cc1OCCCN1CCCC1` [Compound 485] yielded an IC50 of 0.1 to 1 µM. With `COc1ccc(Nc2nc(C)cc3[nH]ccc23)cc1OCCCN1CCCC1` [Compound 486] the IC50 was greater than 10 µM. `CNc1cc(C)nc(Nc2ccc(OC)c([C@H]3C[C@@H]3CN(C)C)c2)n1` [Compound 487] was tested, and the IC50 was 1 to 10 µM. Compound `CNc1cc(C)nc(Nc2ccc(OC)c([C@H]3C[C@H]3CN(C)C)c2)n1` [Compound 488] has an IC50 of 0.1 to 1 µM. For `CNc1cc(C)nc(Nc2ccc(OC)c(OC(C#N)CCN3CCCC3)c2)n1` (stereo not shown) [Compound 489], the IC50 was 1 to 10 µM. Compound `CNc1cc(C)nc(Nc2ccc(OC)c(OCCCN3CCC3)c2)n1` [Compound 490] has an IC50 of less than 0.1 µM. Work on `CNc1cc(C)nc(Nc2ccc(OC)c(OC[C@@H]3CN(C)C[C@H]3O)c2)n1` [Compound 491] yielded an IC50 of 1 to 10 µM. For `CNc1cc(C)nc(Nc2ccc(OC)c(OC[C@@H]3CN(C)C[C@@H]3O)c2)n1` [Compound 492], the IC50 was 0.1 to 1 µM. In the case of `COc1cnc(Nc2nc(C)cc3[nH]ccc23)cc1OCC1CCN(C2CC2)C1` (stereo not shown) [Compound 494], the IC50 was less than 0.1 µM. `COc1cnc(Nc2nc(C)cc3[nH]ccc23)cc1OC[C@H]1CCN(C2CC2)C1` [Compound 494a] gave an IC50 of 0.1 to 1 µM. With `COc1cnc(Nc2nc(C)cc3[nH]ccc23)cc1OC[C@@H]1CCN(C2CC2)C1` [Compound 495] the IC50 was 0.1 to 1 µM. `CNc1cc(C)nc(Nc2cc(Cl)c(OC)c(OCCCN3CCCC3)c2)n1` [Compound 496] was tested, and the IC50 was 1 to 10 µM. With `CCc1ccc(Nc2nc(C)cc(NC)n2)cc1OCCCN1CCCC1` [Compound 497] the IC50 was 0.1 to 1 µM. Compound `CNc1cc(C)nc(Nc2ccc(OC)c(OCCCN3CCC4(CC4)C3)c2)n1` [Compound 498, N^2-(3-(3-(5-azaspiro[2.4]heptan-5-yl)propoxy)-4-methoxyphenyl)-N^4,6-dimethylpyrimidine-2,4-diamine] has an IC50 of 1 to 10 µM. `CNc1cc(C)nc(Nc2ccc(OC)c(OCCCCN(C)C)c2)n1` [Compound 502] showed an IC50 of 1 to 10 µM. `CNc1cc(C)nc(Nc2ccc(OC)c(OCCC3CCN(C)C3)c2)n1` (stereo not shown) [Compound 503] showed an IC50 of 1 to 10 µM. In the case of `CNc1cc(C)nc(Nc2ccc(OC)c(OCCCN3CCCC3C)c2)n1` (stereo not shown) [Compound 504, N^2-(4-methoxy-3-(3-(2-methylpyrrolidin-1-yl)propoxy)phenyl)-N^4,6-dimethylpyrimidine-2,4-diamine], the IC50 was 0.1 to 1 µM. In the case of `CNc1cc(C)nc(Nc2ccc(OC)c(OCCCN3CC4CC4C3)c2)n1` (stereo not shown) [Compound 506], the IC50 was 0.1 to 1 µM. `COc1cnc(Nc2nccc3[nH]ccc23)cc1OCCCN1CC2CC2C1` (stereo not shown) [Compound 507] was tested, and the IC50 was 0.1 to 1 µM. In the case of `CNc1cc(C)nc(Nc2ccc(OC)c(OCCC3CN(C)C3)c2)n1` [Compound 508], the IC50 was greater than 10 µM. `CNc1cc(Nc2cc(OCCCN3CC4CC4C3)c(OC)cn2)nc(C)c1F` (stereo not shown) [Compound 509] was tested, and the IC50 was 0.1 to 1 µM. With `CNc1cc(C)nc(Nc2ccc(OC)c(OCC3CN(C4CC4)C3)c2)n1` [Compound 510] the IC50 was 0.1 to 1 µM. `CNc1cc(C)nc(Nc2cnc(OC)c(OC[C@@H]3CCN(C4CC4)C3)c2)n1` [Compound 512] showed an IC50 of less than 0.1 µM. For `CNc1cc(C)nc(Nc2cnc(OC)c(OCCCN3CC4CC4C3)c2)n1` (stereo not shown) [Compound 514], the IC50 was 0.1 to 1 µM. `CCc1ncc(Nc2nc(C)cc(NC)n2)cc1OCCCN1CCCC1` [Compound 515] was tested, and the IC50 was 1 to 10 µM. `CNc1cc(C)nc(Nc2cnc(C3CC3)c(OCCCN3CCCC3)c2)n1` [Compound 516] gave an IC50 of 1 to 10 µM. `CNc1cc(C)nc(Nc2ccc(OC)c(OCC3CCCN(C4CC4)C3)c2)n1` (stereo not shown) [Compound 517a] gave an IC50 of 0.1 to 1 µM. `CNc1cc(C)nc(Nc2ccc(OC)c(OC[C@H]3CCCN(C4CC4)C3)c2)n1` [Compound 517b] gave an IC50 of 0.1 to 1 µM.
